Data on two compounds can be found in ChEMBL document CHEMBL2010715, “Verrulactones A and B, new inhibitors of Staphylococcus aureus enoyl-ACP reductase produced by Penicillium verruculosum F375” (Bioorg Med Chem Lett, 2012).

The structures appear in SMILES notation. ≈ marks a conversion by molar mass, not a printed value. Calls of active or inactive are those of the source. No cut-off for these calls is given here.

In one experiment the test system is Bacillus cereus. Put plainly: Antibacterial activity against Bacillus cereus KCTC 1661. It counts as functional.
Experiment [1] relates to Staphylococcus aureus. Put plainly: (§1) Inhibition of Staphylococcus aureus Fab1.
Experiment [2] in a line: as §1.
Another experiment deals with Escherichia coli. Put plainly: Antibacterial activity against Escherichia coli KCTC 1683. In kind it is functional, organism-based.
The subject of a further experiment is Pseudomonas aeruginosa. Briefly: Antibacterial activity against Pseudomonas aeruginosa KCTC 2004. In kind it is functional, organism-based.
Experiment [3] deals with Staphylococcus aureus. Put plainly: Antibacterial activity against methicillin-resistant Staphylococcus aureus CCARM 3167. It counts as functional.
The test system of experiment [4] is Staphylococcus aureus. Briefly: Antibacterial activity against Staphylococcus aureus RN4220. It counts as functional.

As usually defined, the MIC is the lowest concentration found to suppress growth. Broadly, the IC50 is the concentration needed to halve the response being measured. Regarding `COc1cc(O)c2c(=O)oc3cc(O)c(O)c(-c4c(O)c(O)cc5oc(=O)c6c(O)cc(OC)cc6c45)c3c2c1` [VERRULACTONE A], the minimum inhibitory concentration (MIC) against Bacillus cereus, against Staphylococcus aureus [3] and in the experiment with Staphylococcus aureus [4] was 8 µg/mL (≈ 14.6 µM) throughout. Besides, the inhibition result in the experiment with Staphylococcus aureus [1] was “Dose-dependent effect”. The compound further returned an IC50 in experiment [2] of 920 nM. The result with Escherichia coli and in the experiment on Pseudomonas aeruginosa was inactive.

For the compound `COc1cc(O)c2c(=O)oc3c(-c4c(O)c(O)cc5oc(=O)c6c(O)cc(OC)cc6c45)c(O)c(O)cc3c2c1` [VERRULACTONE B], the IC50 in experiment [2] came out at 1410 nM. For the same compound, the minimal inhibitory concentration (MIC) against Staphylococcus aureus [3] and in the experiment on Staphylococcus aureus [4] was 16 µg/mL (≈ 29.3 µM) in each case.
